# Assay results as given in patent publication US20220281848A1, “PYRAZOLE-SUBSTITUTED PYRROLIDINONES AS HERBICIDES” (FMC Corporation, priority 2019, published 2022).
# What was measured:
# Type in all cases: in vivo
# Details in all cases: after 13 d
# [1] = tested on: ivy-leaved morning glory (Ipomoea hederacea, IPOHE); test: Test A pre-emergence, ivy-leaved morning glory
# Procedure: (§1) Seeds of corn (Zea mays, ZEAMX), giant foxtail (Setaria faberi, SETFA), barnyardgrass (Echinochloa crus-galli, ECHCG), ivy-leaved morning glory (Ipomoea hederacea, IPOHE), redroot pigweed (Amaranthus retroflexus, AMARE) and velvetleaf (Abutilon theophrasti, ABUTH) were sown in standard soil in pots. After cultivation for one day under controlled conditions in a glasshouse (at 24/16° C., day/night; 14 h light; 65% humidity), the plants were sprayed with an aqueous spray solution derived from the formulation of the technical active ingredient in acetone/water (50:50) solution containing 0.5% Tween 20 (polyoxyethylene sorbitan monolaurate, CAS RN 9005-64-5) to give a final dose of 15.625, 62.5 or 250 g/ha of test compound.
# (§2) The test plants were then grown under controlled conditions in a glasshouse (at 24/16° C., day/night; 14 h light; 65% humidity) and watered twice daily. After 13 d the test was evaluated (100=total damage to plant; 0=no damage to plant).
# corn (Zea mays, ZEAMX) [2] = test: Test A pre-emergence, corn
# Procedure: as §1, §2
# [3] = tested on: barnyardgrass (Echinochloa crus-galli, ECHCG); test: Test A post-emergence, barnyardgrass
# Procedure: as §1, with “IPOHE)),” for “IPOHE),”, “8 d” for “one day”
# (§3) The test plants were then grown on under controlled conditions in a glasshouse (at 24/16° C., day/night; 14 h light; 65% humidity) and watered twice daily. After 13 d the test was evaluated (100=total damage to plant; 0=no damage to plant).
# [4] = tested on: redroot pigweed (Amaranthus retroflexus, AMARE); test: Test A post-emergence, redroot pigweed
# Procedure: as §1, with “IPOHE)),” for “IPOHE),”, “8 d” for “one day”
# as §3
# [5] = tested on: barnyardgrass (Echinochloa crus-galli, ECHCG); test: Test A pre-emergence, barnyardgrass
# Procedure: as §1, §2
# [6] = tested on: redroot pigweed (Amaranthus retroflexus, AMARE); test: Test A pre-emergence, redroot pigweed
# Procedure: as §1, §2
# [7] = tested on: velvetleaf (Abutilon theophrasti, ABUTH); test: Test A pre-emergence, velvetleaf
# Procedure: as §1, §2
# [8] = tested on: giant foxtail (Setaria faberi, SETFA); test: Test A post-emergence, giant foxtail
# Procedure: as §1, with “IPOHE)),” for “IPOHE),”, “8 d” for “one day”
# as §3
# [9] = tested on: giant foxtail (Setaria faberi, SETFA); test: Test A pre-emergence, giant foxtail
# Procedure: as §1, §2
# [10] = tested on: ivy-leaved morning glory (Ipomoea hederacea, IPOHE); test: Test A post-emergence, ivy-leaved morning glory
# Procedure: as §1, with “IPOHE)),” for “IPOHE),”, “8 d” for “one day”
# as §3
# corn (Zea mays, ZEAMX) [11] = test: Test A post-emergence, corn
# Procedure: as §1, with “IPOHE)),” for “IPOHE),”, “8 d” for “one day”
# as §3
# [12] = tested on: velvetleaf (Abutilon theophrasti, ABUTH); test: Test A post-emergence, velvetleaf
# Procedure: as §1, with “IPOHE)),” for “IPOHE),”, “8 d” for “one day”
# as §3
structure (smiles),measurement,setting,value
CN1CC(c2cc(C(F)(F)F)n(C)n2)C(C(=O)Nc2cccc(F)c2F)C1=O (stereo not drawn) [Compound 12],damage to plant (100=total damage; 0=no damage) IPOHE,[1]; Pre-Emergence at 15.625 g/ha,0
same,damage to plant (100=total damage; 0=no damage) IPOHE,[1]; Pre-Emergence at 62.5 g/ha,0
same,damage to plant (100=total damage; 0=no damage) IPOHE,[1]; Pre-Emergence at 250 g/ha,20
same,damage to plant (100=total damage; 0=no damage) ZEAMX,"corn (Zea mays, ZEAMX) [2]; Pre-Emergence at 15.625 g/ha",0
same,damage to plant (100=total damage; 0=no damage) ZEAMX,"corn (Zea mays, ZEAMX) [2]; Pre-Emergence at 62.5 g/ha",0
same,damage to plant (100=total damage; 0=no damage) ZEAMX,"corn (Zea mays, ZEAMX) [2]; Pre-Emergence at 250 g/ha",20
same,damage to plant (100=total damage; 0=no damage) ECHCG,[3]; Post-Emergence at 15.625 g/ha,0
same,damage to plant (100=total damage; 0=no damage) ECHCG,[3]; Post-Emergence at 62.5 g/ha,0
same,damage to plant (100=total damage; 0=no damage) ECHCG,[3]; Post-Emergence at 250 g/ha,0
same,damage to plant (100=total damage; 0=no damage) AMARE,[4]; Post-Emergence at 15.625 g/ha,0
same,damage to plant (100=total damage; 0=no damage) AMARE,[4]; Post-Emergence at 62.5 g/ha,0
same,damage to plant (100=total damage; 0=no damage) AMARE,[4]; Post-Emergence at 250 g/ha,0
same,damage to plant (100=total damage; 0=no damage) ECHCG,[5]; Pre-Emergence at 15.625 g/ha,0
same,damage to plant (100=total damage; 0=no damage) ECHCG,[5]; Pre-Emergence at 62.5 g/ha,0
same,damage to plant (100=total damage; 0=no damage) ECHCG,[5]; Pre-Emergence at 250 g/ha,10
same,damage to plant (100=total damage; 0=no damage) AMARE,[6]; Pre-Emergence at 15.625 g/ha,0
same,damage to plant (100=total damage; 0=no damage) AMARE,[6]; Pre-Emergence at 62.5 g/ha,0
same,damage to plant (100=total damage; 0=no damage) AMARE,[6]; Pre-Emergence at 250 g/ha,10
same,damage to plant (100=total damage; 0=no damage) ABUTH,[7]; Pre-Emergence at 15.625 g/ha,0
same,damage to plant (100=total damage; 0=no damage) ABUTH,[7]; Pre-Emergence at 62.5 g/ha,0
same,damage to plant (100=total damage; 0=no damage) ABUTH,[7]; Pre-Emergence at 250 g/ha,0
same,damage to plant (100=total damage; 0=no damage) SETFA,[8]; Post-Emergence at 15.625 g/ha,0
same,damage to plant (100=total damage; 0=no damage) SETFA,[8]; Post-Emergence at 62.5 g/ha,0
same,damage to plant (100=total damage; 0=no damage) SETFA,[8]; Post-Emergence at 250 g/ha,0
same,damage to plant (100=total damage; 0=no damage) SETFA,[9]; Pre-Emergence at 15.625 g/ha,0
same,damage to plant (100=total damage; 0=no damage) SETFA,[9]; Pre-Emergence at 62.5 g/ha,0
same,damage to plant (100=total damage; 0=no damage) SETFA,[9]; Pre-Emergence at 250 g/ha,0
same,damage to plant (100=total damage; 0=no damage) IPOHE,[10]; Post-Emergence at 15.625 g/ha,0
same,damage to plant (100=total damage; 0=no damage) IPOHE,[10]; Post-Emergence at 62.5 g/ha,0
same,damage to plant (100=total damage; 0=no damage) IPOHE,[10]; Post-Emergence at 250 g/ha,0
same,damage to plant (100=total damage; 0=no damage) ZEAMX,"corn (Zea mays, ZEAMX) [11]; Post-Emergence at 15.625 g/ha",0
same,damage to plant (100=total damage; 0=no damage) ZEAMX,"corn (Zea mays, ZEAMX) [11]; Post-Emergence at 62.5 g/ha",0
same,damage to plant (100=total damage; 0=no damage) ZEAMX,"corn (Zea mays, ZEAMX) [11]; Post-Emergence at 250 g/ha",0
same,damage to plant (100=total damage; 0=no damage) ABUTH,[12]; Post-Emergence at 15.625 g/ha,0
same,damage to plant (100=total damage; 0=no damage) ABUTH,[12]; Post-Emergence at 62.5 g/ha,0
same,damage to plant (100=total damage; 0=no damage) ABUTH,[12]; Post-Emergence at 250 g/ha,0
